Test results: US9776987B2, “Amide derivatives for GPR119 agonist” (CHONG KUN DANG PHARMACEUTICAL CORP., priority 2013, dated 2017)
In brackets after ≈: the same amount, converted by molar mass. Where two headings read alike, the source gives them in different places.

Columns and labels:
[1] = Solubility test of GPR 119 agonist compounds (Nephelostar); assay type: physicochemical; conditions: aqueous with cosolvent or surfactant or cyclodextrin, kinetic from dmso stock
Procedure: 1. Method of Solubility Test
Each test compounds were dissolved in 5% DMSO aqueous solution as a solvent at several concentrations. When a laser was irradiated to the solution, the particles, which are not dissolved in the solvent, scatter the light. The level of the scattered light is dependent to the number of the particles, so the solubility of the test compound in the solution can be determined using the relationship. As the test equipment, Nephelostar was used.

[2] = biological target: T1, human GPR119 receptor (Homo sapiens, UniProt Q8TDV5); experiment: Activity test for human GPR119 receptor (GeneBLAzer T-Rex GPR 119 CHO-K1 DA cells); assay type: cell-based
T1 construct: host or cells: GeneBLAzer T-Rex GPR 119 CHO-K1 DA cells (CHO-K1)
T1 sequence (Q8TDV5 1-335): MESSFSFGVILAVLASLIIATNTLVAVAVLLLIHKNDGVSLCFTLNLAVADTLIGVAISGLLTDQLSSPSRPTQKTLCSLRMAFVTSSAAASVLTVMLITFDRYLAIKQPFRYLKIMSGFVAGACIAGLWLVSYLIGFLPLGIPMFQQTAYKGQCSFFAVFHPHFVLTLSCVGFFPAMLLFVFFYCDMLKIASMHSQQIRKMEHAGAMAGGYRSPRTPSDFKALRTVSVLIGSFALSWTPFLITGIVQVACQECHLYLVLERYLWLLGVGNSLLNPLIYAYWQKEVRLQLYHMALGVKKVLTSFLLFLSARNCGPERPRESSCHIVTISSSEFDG
Outline: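 Compounds at 0.1, 1 and 10 μM, in duplicate, on GeneBLAzer T-Rex GPR119 CHO-K1 DA cells for 5 h, then 2 h with colour-development reagent before fluorescence reading. Test-to-vehicle-control ratio converted to EC50; mean±SD.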

[3] = system: Glucagon-Like Peptide-1 (GLP-1) secretion; experiment: Secretion capacity test of glucagon-like peptide-1 (GLP-1); assay type: in vivo, mouse; conditions: normal mice, oral, AUC of plasma GLP-1 level, vehicle (water) 100%
Procedure: 3. Secretion Capacity Test of Glucagon-Like Peptide-1 (GLP-1)
Male C57/6J Jms mice of 6-7 weeks of age were fasted for 16 hours before the start of the test of secretion capacity test of GLP-1. The experimental animal groups consist of: a vehicle group (100% DI water); and test groups administered with each compounds (10 mg/kg). Blood samples were taken from the orbital vein of the test animals. Plasma GLP-1 level was determined using a GLP-1 ELISA kit (Total GLP-1 ELISA, ALPCO). With the base of 30 minutes before the compound administration, each blood samples were taken at 30, 60, 120 and 210 minutes after the compound administration. 30% Glucose solution (3 g/kg/10 mL) was administered orally at 5 minutes before each blood-collecting. From the collected blood, only plasma was taken using a centrifuge (12000 rpm, 15 minutes), and stored at −80° C. before analysis. Plasma GLP-1 level vs. Time was graphicalized. Area under the curve (AUC) of plasma GLP-1 level was obtained using GraphPad Prism 4.0. All the results were expressed as mean±SD, and each test groups and the control group were compared using one-way ANOVA test (Dunnett's test, *p<0.05, **p<0.01, ***p<0.001) to adjudge the effects of each test groups.

[4] = system: Male C57/6J Jms mice; experiment: Glucose tolerance test in normal mouse; assay type: in vivo
Procedure: 1. Method of Glucose Tolerance Test
Male C57/6J Jms mice of 6-7 weeks of age were fasted for 16 hours before the start of glucose tolerance test. […]
Before compound administration, that is, at 0 hour, whole blood glucose level was determined using a Glucometer (ACCU-CHEK, Roche). At 30 minutes after compound administration, whole blood glucose level was determined once again, and 20% glucose (2 g/kg/10 mL) was administered orally. Whole blood glucose level was determined at 20, 40, 60, 80, and 120 minutes after 20% glucose administration. Whole blood glucose level vs. Time was graphicalized. Area under the curve (AUC) of whole blood glucose level was obtained using GraphPad Prism 4.0. The effect of glucose tolerance was adjudged with the corrected area under the curve (cAUC), on which the base value of glucose area under the curve was excluded.

CCC(F)(CC)CN1CCC(COc2ccc(-c3ccc(C(=O)N4C[C@H](O)C[C@H]4C(N)=O)c(F)c3)nc2)CC1 [Compound 1279, (2S,4R)-1-(4-(5-((1-(2-ethyl-2-fluorobutyl)piperidin-4-yl)methoxy)pyridin-2-yl)-2-fluorobenzoyl)-4-hydroxypyrrolidin-2-carboxamide]
solubility ([1]; pH 2, 5% DMSO aqueous solution, read-out: Solubility pH 2): > 272 µg/mL
solubility ([1]; pH 4, 5% DMSO aqueous solution, read-out: Solubility pH 4): > 272 µg/mL
solubility ([1]; pH 6, 5% DMSO aqueous solution, read-out: Solubility pH 6): > 272 µg/mL
solubility ([1]; pH 8, 5% DMSO aqueous solution, read-out: Solubility pH 8): 133 µg/mL (≈ 244 µM)
EC50 ([2]; human GPR119 receptor expressing CHO-K1 cells, 5 hours treatment, read-out: hGPR119 EC50): 0.013 µM
activity for human GPR119 receptor (in words) ([2]; judgement on the EC50 values of Table 11): excellent activity
GLP-1 secretion (%) at 10 mg/kg of dose [3]: 324%
Decrease % of AUC at 2.5 mg/kg ([4]; 2.5 mg/kg): 20.8%
Decrease % of AUC at 5 mg/kg ([4]; 5 mg/kg): 30.2%
